Experimental data reported in a melting point compilation (Tetko et al.; mined from patent text by program, amines drawn as free bases though some values may be those of a salt).

SMILES	melting point [°C]
N#Cc1cccc(C2=Nc3ccc(-c4cccc(F)c4F)cc3NC(=O)C2)c1	240
Cc1oc(C(=O)NCc2ccc3c(c2)OCO3)c(C)c1-c1nc2ccc(C(=O)c3ccccc3)cc2[nH]1	122 to 125
CCC1(CC(=O)O)OCCc2c1[nH]c1c(OCC(F)(F)F)c(Cl)ccc21 (configuration not stated)	157
O=Cc1ccccc1C(=O)c1ccc(Br)cc1	103 to 109
O=C1c2cc([N+](=O)[O-])ccc2OC12CC2	107 to 110
CCCCCN(C)C12CN3CN(CN(C3)C1)C2	30 to 31
O=C(OC1C2CN(Cc3ccccc3)CC1CN(C(=O)c1ccc(Cl)cc1)C2)c1ccccc1 (configuration not stated)	165
COc1cc2cc3ncc(C#N)c(Nc4ccc(Oc5ccccc5)cc4)c3cc2cc1OC	> 265
OCc1ccc(-c2ccc(OC(F)(F)F)c(F)c2)cn1	51 to 53
CNC(=O)c1ccccc1Nc1nc(Nc2ccc3c(c2)CN(CCOC)CCS3)ncc1Cl	176 to 177
CC(c1ccc2c(c1)CCC(=O)N2)n1ccnc1 (configuration not stated)	185
CCC(=O)Oc1cccc2c1C(=O)c1c(OC(=O)CC)cc(-c3nnn[nH]3)cc1C2=O	176 to 178
O=C(c1nccs1)c1cnn2c(-c3cccc(NC(=O)C4CC4)c3)ccnc12	226 to 229
CN(C(=O)N1CCCC1)c1cccc2cc(-c3nccs3)[nH]c12	182
O=S1(=O)C[C@H](O)[C@H](O)CS1	131 to 132
COc1ccc(C(=O)O[Si](C)(C)C)cc1	60 to 61
CNc1nc(C)c(-c2cn3cc(Cl)ccc3n2)s1	242 to 243
O=C(Nc1ccc(Cl)cc1)Nc1ccc2c(c1)OC(F)(F)O2	231 to 233
CCOC(=O)c1cn(Cc2ccc(OCc3ccccc3)cc2)nc1-c1ccccc1	102 to 103
Nc1cc(Cl)nc(SC/C=C/C(=O)N2CCCC2)n1	178 to 180
CC=C(c1ccccc1)c1c(C)nn(C)c1NC(=O)Nc1ccccc1	173 to 195
CCN(CC)c1ccc(N(c2ccc(N(CC)CC)cc2)C2(c3ccc(N(CC)CC)cc3C)OC(=O)c3ccccc32)cc1 (configuration not stated)	58 to 71
Nc1ccc(Sc2c(NCC3CC3)cc(C(=O)O)cc2S(N)(=O)=O)cc1	221 to 223
COC(=O)COc1ccc(C(=O)NN(C)C(=O)c2ccc(C(N)=S)cc2)cc1	169 to 170
CC(=O)Nc1cc2c(cc1Oc1ccc(F)cc1F)CCC2=O	210

SMILES	melting point [°C]
COc1cc2[nH]c(=O)sc2cc1OC	192 to 193
Cc1cc(C2=NOC(C)(c3cc(Cl)cc(Cl)c3)C2)ccc1C(=O)NCC(O)CO (configuration not stated)	98
COc1cc(OC)c2c(=O)[nH]c(-c3cccc(N4CCN(CCS(C)(=O)=O)CC4)n3)nc2c1	243 to 244
CCOC(=O)c1[nH]c2sc(Cl)cc2c1Cl	166 to 167
CC1=CC(c2cccc(Cl)c2)C(c2cccs2)=NN1 (configuration not stated)	109
C(=C\c1ccc(N2CCCC2)cc1)/CC1CCN(Cc2ccccc2)CC1	115 to 117
CC(C)(CCCc1cccc2cncn12)CC(=O)O	124 to 129
CCc1ccc2c(c1)C1(CCN(C(=O)Nc3cnc(-c4ccccc4)cn3)CC1)OC2=O	176 to 178
N[C@@H]1CCN(Cc2ccccc2)C[C@H]1O (relative stereo)	74.1
CNc1cc(N2CCN(C(=O)C3CCN(S(=O)(=O)c4ccc(C(F)(F)F)cc4)CC3)CC2)ncn1	237 to 238
COc1cc(COc2nn(-c3ccccc3)cc2/C=C/C(N)=O)ccc1OCc1nc(-c2ccco2)oc1C	187 to 188
CCCOc1ccccc1-c1nc2nc(NCCO)ncc2c(=O)[nH]1	204 to 206
O=C/C=C/c1csc(Nc2ccccc2)n1	142 to 143
CCOC(=O)C(C(=O)OCC)=C(SCc1ccc(OC)cc1)SCc1ccc(OC)cc1	57 to 59
CC(=O)N(C)c1ccc2sc3ccc(Br)cc3c(=O)c2c1	240 to 241
O=C(OCc1ccccc1)[C@H](CC(=O)N1C[C@H]2CCCC[C@H]2C1)Cc1ccccc1	107 to 108
COc1ccc(-c2c(Cl)c(Cn3cnc4ccccc43)nc3sc4c(c23)CCS(=O)C4)cc1 (configuration not stated)	233 to 235
COC1(c2ccc(C)cc2)CCC(=O)CC1	76 to 76.5
CCOC(=O)c1ncn2c1CN=C(NCC(OC)OC)c1ccccc1-2	121 to 122
CC(=O)NC[C@H]1CN(c2ccc(C3CCN(C=O)CC3)c(F)c2)C(=O)O1	186 to 187
CS(=O)(=O)Nc1cc([N+](=O)[O-])ccc1F	128 to 129
NNC(=O)Cc1cccc(OCCN2CCC(Cc3ccccc3)CC2)c1	89 to 91
COc1ccc(-c2nc(N)sc2-c2ccncc2)cc1	282 to 284
COc1cc(O)ccc1CCCc1ccc(O)c(CC=C(C)C)c1	85 to 86
c1ccn(-c2nc(COc3ccc(CCCn4ccnc4)cc3)cs2)c1	93 to 94

SMILES	melting point [°C]
CC(=O)Nc1ccc(-c2cc(-c3ccc(NC(C)=O)cc3C)cc(-c3ccc(NC(C)=O)cc3C)c2)c(C)c1	180
ClCc1nc2cc(Br)ccc2o1	63 to 65
OC(c1ccccc1)c1cc2cc(Br)ccc2o1 (configuration not stated)	56 to 58
Cn1cc(C(=O)NCc2ccc(Cl)cc2)c(=O)c2cc(CN3CCOCC3)cc(C#CCC(CO)CO)c21	190 to 193
CCOC(=O)CCC(=O)c1ccc(Cl)c(S(N)(=O)=O)c1	94 to 95
CN(CCOc1ccc([N+](=O)[O-])cc1F)c1ccccn1	95 to 96
Cn1ccnc1S(=O)(=O)CC(=O)C12CC3CC(CC(C3)C1)C2	124 to 125
CCCCC(=O)N(CCCCn1ccnc1)C1=Nc2cccc3cccc1c23	110 to 112
COC(=O)c1ccc(NC(=O)c2ccc(-c3ccccc3)cc2)cc1	247 to 251
COc1ccc(C)cc1NC(=O)Nc1ccc(N2CCN(C(=O)Nc3ccc(N)cc3C(F)(F)F)CC2)cc1	244 to 246
CCSC1c2cccc(O)c2C(=O)c2c(O)cccc21	117 to 118
CCC(OC(C)=O)c1ccc(Cl)c2nc3n(c12)CCCN3c1ccc(OC)cc1Cl (configuration not stated)	178 to 180
CN(Cc1ccc(F)cc1)C1CCN(c2ccc([N+](=O)[O-])cc2)CC1	89 to 90
O=C(Nc1ccc(Br)c(C(F)(F)F)c1)c1cccnc1NCn1ccccc1=O	202 to 205
COc1ccc2c3c1O[C@H]1C[C@@H](O)C=C[C@@]31CCN(CCN1CCOCC1)C2	101 to 104
COc1cccc(C(=O)Nc2ccccc2C(c2ccc(O)cc2)c2ccc(O)cc2)c1	165 to 168
CN(C=O)c1cc([N+](=O)[O-])cc([N+](=O)[O-])c1	93 to 94
O=C(NO)[C@H](CNS(=O)(=O)c1ccc(OCc2ccccc2)cc1)N1CCOCC1	142
O/N=C1\CCCc2c1c1ccccc1n2-c1ccc(O)cc1	227 to 229
CN1CC2Cc3cc4c(cc3C(c3ccc([N+](=O)[O-])cc3)=NN2C1=O)OCO4 (configuration not stated)	252 to 255
COC(=O)COc1ccc(C=Cc2nc(-c3ccccc3)c(-c3ccccc3)o2)cc1	122 to 123
CC(=O)N1CCC2(c3ccccc3)OC2C1 (configuration not stated)	68 to 71
CN1CCC(C2(O)c3cc(F)ccc3CCc3cccnc32)CC1 (configuration not stated)	126 to 127
N#Cc1ccc(C(=O)N2CCN(NC(=O)c3ccc(F)cc3)CC2)cc1	222 to 224
CC(C)(C)c1cc(C(=O)c2cccnc2Cl)cc(C(C)(C)C)c1O	135 to 137

SMILES	melting point [°C]
CC(=O)c1ccc(OCCCN2CCC(c3noc4cc(F)ccc34)CC2)c(O)c1	122 to 124
O=C(NCCO)c1cccc(-c2cccc3oc(Cc4cccc(C(F)(F)F)c4)cc23)c1	135 to 136
CCCc1cn(C)c2c(=O)[nH]c(-c3cc(S(=O)(=O)N4CCN(CCOC(C)=O)CC4)ccc3OCC)nc12	192
COc1c2c(c(OC)c(OC)c1OC)CC(CCCCOc1ccc(C(=O)N3CCOCC3)cc1)C2	64 to 72
OC1C2C=CC1C1N=NC21 (configuration not stated)	128
CCCCc1nc(SC)c(C(C)(O)C(=O)O)n1Cc1ccc(-c2ccccc2S(=O)(=O)NC(=O)OCc2ccccc2)cc1 (configuration not stated)	140 to 150
O=C1CC(c2ccccc2)CC(=O)N1c1ccncc1	229 to 230
O=c1[nH]c2ccccc2n1CC1CCCN(CC(O)C2COc3ccccc3O2)C1 (configuration not stated)	154
CCn1c(=O)n(-c2ccc(Oc3nc4ccccc4n3C)cc2)c2ncc(Cl)cc21	208 to 210
COc1cc(C(=O)O)ccc1Cn1ncc2ccc(NC(=O)CC3CCCC3)cc21	254 to 256
O=C(O)c1cc(-c2ccc3c(c2)CCO3)nn(CCCc2ccccc2Cl)c1=O	137 to 140
O=c1ccoc2ccc(OCCCCCl)cc12	75 to 77
O=C1N(Cc2ccc(Cl)s2)c2ccccc2C12COc1ccc(Br)cc12 (configuration not stated)	140 to 142
Cc1nc(C(O)(Cn2cncn2)c2ccc(F)cc2)cs1 (configuration not stated)	120
O=C(Cc1ccc(Cl)cc1)OCCCOc1c(Cl)cc(OCC=C(Cl)Cl)cc1Cl	62.2
Clc1cccc(N2CCN(Cc3cn4cc(Cl)ccc4n3)CC2)c1	148 to 149
Cc1ccc(OCC(=O)c2cc(C(C)(C)C)c(O)c(C(C)(C)C)c2)c(-n2nc3ccccc3n2)c1	155 to 157
Cc1cc(-c2nc3ccccc3c(=O)n2-c2ccc(I)cc2)cc(C)c1OCCO	101 to 103
N#Cc1nn(-c2c(Cl)cc(C(F)(F)F)cc2Cl)c(-n2cncn2)c1S(=O)(=O)C(F)(F)F	172 to 174
N#CCCCN1CC=C(c2ccccc2)CC1	57 to 59
C[Si](C)(C)C1(COC(=O)Nc2ccccc2)c2ccccc2-c2ccccc21	94 to 96
CC(C)(C)OC(=O)N1CCN(c2ccc(N3CC(CN=[N+]=[N-])OC3=O)cc2F)CC1 (configuration not stated)	101 to 104
